Reference: ChEMBL document CHEMBL1909046, “DrugMatrix in vitro pharmacology data”

Legend:
[1] = DRUGMATRIX: Serotonin (5-Hydroxytryptamine) 5-HT3 radioligand binding (ligand: [3H] GR-65630); format: cell membranes, Membrane; details: hek293; Not Active = under 50% inhibition at 10 µM
[2] = DRUGMATRIX: Tumor Necrosis Factor (TNF), Non-Selective radioligand binding (ligand: [125I] TNF-alpha); format: cell membranes, Membrane; details: u-937; Not Active = under 50% inhibition at 10 µM
[3] = molecular target: C-C chemokine receptor type 2 (Homo sapiens, UniProt P41597); format: cell membranes, CHO-K1, Membrane; details: cho-k1; further: in other assays of this panel Not Active means under 50% inhibition at 10 µM
[4] = molecular target: T1, Muscarinic acetylcholine receptor M2 (Homo sapiens, UniProt P08172); format: cell membranes, CHO-K1, Membrane; details: cho-k1; further: in other assays of this panel Not Active means under 50% inhibition at 10 µM
T1 sequence (P08172 whole entry): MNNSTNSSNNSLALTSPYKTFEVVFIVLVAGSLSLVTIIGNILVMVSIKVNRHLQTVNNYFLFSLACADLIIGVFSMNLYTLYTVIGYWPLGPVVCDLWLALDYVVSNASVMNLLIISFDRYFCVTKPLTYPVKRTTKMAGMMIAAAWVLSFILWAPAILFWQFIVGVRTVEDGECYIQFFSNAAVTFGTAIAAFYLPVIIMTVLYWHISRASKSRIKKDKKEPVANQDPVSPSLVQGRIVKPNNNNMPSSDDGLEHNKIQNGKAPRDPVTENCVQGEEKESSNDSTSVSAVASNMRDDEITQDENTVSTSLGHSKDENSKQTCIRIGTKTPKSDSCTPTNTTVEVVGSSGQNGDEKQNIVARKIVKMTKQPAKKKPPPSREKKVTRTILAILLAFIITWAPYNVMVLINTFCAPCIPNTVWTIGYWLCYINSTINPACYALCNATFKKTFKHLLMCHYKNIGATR

[5] = molecular target: cGMP-specific 3',5'-cyclic phosphodiesterase (Homo sapiens, UniProt O76074); assay: DRUGMATRIX: Phosphodiesterase PDE5 enzyme inhibition (substrate: [3H]cGMP + cGMP); format: tissue-based; details: platelet; Not Active = under 50% inhibition at 10 µM
Adenosine receptor A3 = molecular target: T2, Adenosine receptor A3 (Homo sapiens, UniProt P0DMS8); format: cell membranes, CHO-K1, Membrane; details: cho-k1;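 further: radioligand binding assay with AB-MECA serving as the labeled ligand; in other assays of this panel Not Active means under 50% inhibition at 10 µM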
T2 sequence (P0DMS8 whole entry): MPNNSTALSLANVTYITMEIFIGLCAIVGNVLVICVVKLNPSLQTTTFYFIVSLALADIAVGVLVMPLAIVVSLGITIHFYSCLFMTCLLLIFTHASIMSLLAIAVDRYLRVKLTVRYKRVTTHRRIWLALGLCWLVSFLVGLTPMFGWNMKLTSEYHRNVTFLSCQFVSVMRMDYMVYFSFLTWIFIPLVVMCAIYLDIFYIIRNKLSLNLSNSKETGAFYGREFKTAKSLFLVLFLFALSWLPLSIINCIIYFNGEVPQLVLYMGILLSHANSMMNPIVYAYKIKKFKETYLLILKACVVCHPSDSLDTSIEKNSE

Cytochrome P450 2E1 = Cytochrome P450 2E1 (Homo sapiens, UniProt P05181); details: bti-tn-5b1-4; further: in other assays of this panel Not Active means under 50% inhibition at 10 µM
Chain of Cytochrome P450 2E1 (P05181 whole entry): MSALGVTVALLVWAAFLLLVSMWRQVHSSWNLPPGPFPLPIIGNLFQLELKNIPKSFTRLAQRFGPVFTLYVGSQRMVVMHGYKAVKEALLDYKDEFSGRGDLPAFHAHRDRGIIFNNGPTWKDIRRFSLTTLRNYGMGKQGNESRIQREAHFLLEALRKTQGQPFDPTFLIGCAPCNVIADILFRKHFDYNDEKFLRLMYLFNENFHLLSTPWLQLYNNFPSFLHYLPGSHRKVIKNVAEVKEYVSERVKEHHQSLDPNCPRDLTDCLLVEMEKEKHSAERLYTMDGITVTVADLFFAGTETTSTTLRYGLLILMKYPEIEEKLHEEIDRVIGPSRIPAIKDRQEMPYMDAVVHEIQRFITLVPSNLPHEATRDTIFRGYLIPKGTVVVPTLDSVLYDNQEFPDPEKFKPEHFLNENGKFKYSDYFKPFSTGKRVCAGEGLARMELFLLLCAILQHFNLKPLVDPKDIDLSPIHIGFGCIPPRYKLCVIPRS

Chain of C-C chemokine receptor type 2 (P41597 whole entry): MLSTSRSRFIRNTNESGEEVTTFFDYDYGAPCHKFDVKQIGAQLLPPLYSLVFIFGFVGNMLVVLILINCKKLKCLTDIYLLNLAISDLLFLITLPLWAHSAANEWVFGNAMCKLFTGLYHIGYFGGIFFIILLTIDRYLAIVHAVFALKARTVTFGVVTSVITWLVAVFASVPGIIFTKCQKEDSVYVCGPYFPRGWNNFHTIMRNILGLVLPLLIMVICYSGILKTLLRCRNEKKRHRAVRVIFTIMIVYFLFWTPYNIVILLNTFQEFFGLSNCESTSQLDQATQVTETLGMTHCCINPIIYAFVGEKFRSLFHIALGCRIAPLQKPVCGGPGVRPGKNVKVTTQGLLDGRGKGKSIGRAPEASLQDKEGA

CC(C(=O)O)c1ccc(CC2CCCC2=O)cc1 (stereo not given) [LOXOPROFEN]
Not Active: IC50 [1] | Ki [1] | IC50 [2] | Ki [2] | IC50 [3] | IC50 [4] | IC50 [5] | IC50 (Adenosine receptor A3) | IC50 (Cytochrome P450 2E1) | Ki (Cytochrome P450 2E1)

Cc1cccc(Nc2ccccc2C(=O)O)c1C [MEFENAMIC ACID]
Not Active: IC50 [1] | Ki [1] | IC50 [2] | Ki [2] | IC50 [3] | IC50 [4] | IC50 [5] | IC50 (Adenosine receptor A3) | IC50 (Cytochrome P450 2E1) | Ki (Cytochrome P450 2E1)

CC(=O)O[C@]1(C(C)=O)CC[C@H]2[C@@H]3C=C(C)C4=CC(=O)CC[C@]4(C)[C@H]3CC[C@@]21C [MEGESTROL ACETATE]
Not Active: IC50 [1] | Ki [1] | IC50 [2] | Ki [2] | IC50 [3] | IC50 [4] | IC50 [5] | IC50 (Adenosine receptor A3) | IC50 (Cytochrome P450 2E1) | Ki (Cytochrome P450 2E1)

COc1ccccc1OCC(O)COC(N)=O (stereo not given) [METHOCARBAMOL]
Not Active: IC50 [1] | Ki [1] | IC50 [2] | Ki [2] | IC50 [3] | IC50 [4] | IC50 [5] | IC50 (Adenosine receptor A3) | IC50 (Cytochrome P450 2E1) | Ki (Cytochrome P450 2E1)

CN(Cc1cnc2nc(N)nc(N)c2n1)c1ccc(C(=O)N[C@@H](CCC(=O)O)C(=O)O)cc1 [METHOTREXATE]
Not Active: IC50 [1] | Ki [1] | IC50 [2] | Ki [2] | IC50 [3] | IC50 [4] | IC50 [5] | IC50 (Adenosine receptor A3) | IC50 (Cytochrome P450 2E1) | Ki (Cytochrome P450 2E1)

COC(=O)c1ccccc1O [METHYL SALICYLATE]
Not Active: IC50 [1] | Ki [1] | IC50 [2] | Ki [2] | IC50 [3] | IC50 [4] | IC50 [5] | IC50 (Adenosine receptor A3) | IC50 (Cytochrome P450 2E1) | Ki (Cytochrome P450 2E1)

COc1ccc2cc(CCC(C)=O)ccc2c1 [NABUMETONE]
Not Active: IC50 [1] | Ki [1] | IC50 [2] | Ki [2] | IC50 [3] | IC50 [4] | IC50 [5] | IC50 (Adenosine receptor A3) | IC50 (Cytochrome P450 2E1) | Ki (Cytochrome P450 2E1)

O=C(O)c1cccnc1 [NIACIN]
Not Active: IC50 [1] | Ki [1] | IC50 [2] | Ki [2] | IC50 [3] | IC50 [4] | IC50 [5] | IC50 (Adenosine receptor A3) | IC50 (Cytochrome P450 2E1) | Ki (Cytochrome P450 2E1)

CNC(=C[N+](=O)[O-])NCCSCc1csc(CN(C)C)n1 [NIZATIDINE]
Not Active: IC50 [1] | Ki [1] | IC50 [2] | Ki [2] | IC50 [3] | IC50 [4] | IC50 [5] | IC50 (Adenosine receptor A3) | IC50 (Cytochrome P450 2E1) | Ki (Cytochrome P450 2E1)

C[C@]12C/C(=C/O)C(=O)C[C@@H]1CC[C@@H]1[C@@H]2CC[C@@]2(C)[C@H]1CC[C@]2(C)O [OXYMETHOLONE]
Not Active: IC50 [1] | Ki [1] | IC50 [2] | Ki [2] | IC50 [3] | IC50 [4] | IC50 [5] | IC50 (Adenosine receptor A3) | IC50 (Cytochrome P450 2E1) | Ki (Cytochrome P450 2E1)

CC(C)(CO)C(O)C(=O)NCCCO (stereo not given) [PANTHENOL]
Not Active: IC50 [1] | Ki [1] | IC50 [2] | Ki [2] | IC50 [3] | IC50 [4] | IC50 [5] | IC50 (Adenosine receptor A3) | IC50 (Cytochrome P450 2E1) | Ki (Cytochrome P450 2E1)

COc1ccc(Cc2nccc3cc(OC)c(OC)cc23)cc1OC [PAPAVERINE]
Not Active: IC50 [1] | Ki [1] | IC50 [2] | Ki [2] | IC50 [3] | IC50 [4] | IC50 [5] | IC50 (Adenosine receptor A3) | IC50 (Cytochrome P450 2E1) | Ki (Cytochrome P450 2E1)
